Biological target: Beta-secretase 1 (Homo sapiens, UniProt P56817)
Assay: Inhibition of human Beta-secretase 1

Sequence of Beta-secretase 1 (P56817 whole entry): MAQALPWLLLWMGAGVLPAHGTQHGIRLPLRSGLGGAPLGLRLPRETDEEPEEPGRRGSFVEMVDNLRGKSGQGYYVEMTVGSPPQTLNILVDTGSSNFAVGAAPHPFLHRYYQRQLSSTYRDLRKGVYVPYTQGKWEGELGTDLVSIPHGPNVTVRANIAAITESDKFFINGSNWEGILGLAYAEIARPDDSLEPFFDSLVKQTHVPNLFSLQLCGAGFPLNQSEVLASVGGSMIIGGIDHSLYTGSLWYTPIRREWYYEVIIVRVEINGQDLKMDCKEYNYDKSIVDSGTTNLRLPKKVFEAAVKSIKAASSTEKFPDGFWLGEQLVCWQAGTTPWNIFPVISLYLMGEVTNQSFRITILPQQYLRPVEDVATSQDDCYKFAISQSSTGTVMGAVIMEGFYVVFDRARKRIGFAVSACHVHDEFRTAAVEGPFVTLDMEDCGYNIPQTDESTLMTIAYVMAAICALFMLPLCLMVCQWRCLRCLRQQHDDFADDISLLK

IC50	Compound
0.65 µM	CCC(C)C[C@H](NC(=O)C[C@H](O)[C@H](Cc1ccccc1)NC(=O)[C@H](CC(C)C)NC(C)=O)[C@@H](O)CC(=O)N[C@H](C(=O)NCc1ccc(C(=O)O)cc1)C(C)C (some centres not stated)
0.67 µM	CC(=O)N[C@@H](CC(C)C)C(=O)N[C@@H](Cc1ccccc1)[C@@H](O)CC(=O)N[C@@H](CC1CCCCC1)[C@@H](O)CC(=O)N[C@H](C(=O)NCc1ccc(C(=O)O)cc1)C(C)C (stereo in doubt; 15)
42 µM	CC(=O)N[C@@H](CCC(=O)O)C(=O)N[C@@H](Cc1ccccc1)[C@@H](O)CC(=O)N[C@@H](CC1CCCCC1)[C@@H](O)CC(=O)N[C@H](C(=O)NCc1ccc(C(=O)O)cc1)C(C)C
34 µM	CCC(C)C[C@H](NC(=O)[C@H](CC(C)C)NC(C)=O)[C@@H](O)CC(=O)NC(CC[S+](C)[O-])[C@@H](O)CC(=O)N[C@H](C(=O)NCc1ccc(C(=O)O)cc1)C(C)C (some centres not stated)
> 100 µM	CC(C)[C@H](NC(=O)C[C@H](O)[C@H](CC1CCCCC1)NC(=O)C[C@H](O)[C@H](Cc1ccccc1)NC(=O)OC(C)(C)C)C(=O)NCc1ccc(C(=O)O)cc1
0.05 µM	CC(=O)N[C@@H](CC(C)C)C(=O)N[C@@H](Cc1ccccc1)[C@@H](O)CC(=O)N[C@@H](CC1CCCCC1)[C@@H](O)CC(=O)N[C@H](C(=O)NCc1ccc(C(=O)O)cc1)C(C)C (stereo in doubt; 13)
5.6 µM	CC(=O)N[C@@H](Cc1ccccc1)C(=O)N[C@@H](Cc1ccccc1)[C@@H](O)CC(=O)N[C@@H](CC1CCCCC1)[C@@H](O)CC(=O)N[C@H](C(=O)NCc1ccc(C(=O)O)cc1)C(C)C
9 µM	CC(=O)NCC(=O)N[C@@H](Cc1ccccc1)[C@@H](O)CC(=O)N[C@@H](CC1CCCCC1)[C@@H](O)CC(=O)N[C@H](C(=O)NCc1ccc(C(=O)O)cc1)C(C)C
> 100 µM	CC(C)[C@H](NC(=O)C[C@H](O)[C@H](CC1CCCCC1)NC(=O)C[C@H](O)[C@@H](N)Cc1ccccc1)C(=O)NCc1ccc(C(=O)O)cc1
0.021 µM	CCC(C)C[C@H](NC(=O)[C@H](CC(C)C)NC(C)=O)[C@@H](O)CC(=O)N[C@@H](Cc1ccccc1)[C@@H](O)CC(=O)N[C@H](C(=O)NCc1ccc(C(=O)O)cc1)C(C)C (some centres not stated)
1.3 µM	CC(C)[C@H](NC(=O)C[C@H](O)[C@H](CC1CCCCC1)NC(=O)C[C@H](O)[C@H](Cc1ccccc1)NC(=O)[C@@H]1CCCN1)C(=O)NCc1ccc(C(=O)O)cc1
0.46 µM	CCC(C)C[C@H](NC(=O)[C@H](CC(C)C)NC(C)=O)[C@@H](O)CC(=O)NC(CCSC)[C@@H](O)CC(=O)N[C@H](C(=O)NCc1ccc(C(=O)O)cc1)C(C)C (some centres not stated)

Source: ChEMBL document CHEMBL1147464, “Synthesis and SAR of bis-statine based peptides as BACE 1 inhibitors” (Bioorg Med Chem Lett, 2004)
